Laboratory results reported in US20220304992A1, “METHODS OF REJUVENATING AGED TISSUE BY INHIBITING 15-HYDROXYPROSTAGLANDIN DEHYDROGENASE (15-PGDH)” (The Board of Trustees of the Leland Stanford Junior …, priority 2019, published 2022).

Experiments:
mdx4cv/mTRKO(G2) mice = assay: Plantar flexion tetanic force in Duchenne muscular dystrophy mouse model; format: in vivo; details: 8 month old mice, 4 weeks of treatment
Experimental: For ABT-263 treatments, 20 month old C57/B16 mice were treated with vehicle (ethanol:polyethylene glycol 400:Phosal 50 PG) or ABT-263 (in ethanol:polyethylene glycol 400:Phosal 50 PG) by oral gavage for 2 cycles of 1 week with a 2 week rest period between cycles as described previously (1). For the Duchenne muscular dystrophy (DMD) mouse model, we used 8-10 month old mdx4cv/mTRKO(G2) generated as previously described (2).
Time and distance to exhaustion was performed as previously described (4) for SW-treated mice and their controls (FIG. 3A).
The peak isometric torque (N·mm) of the ankle plantarflexors was assessed as previously described (8,9). Briefly, the foot of anesthetized mice was placed on a footplate attached to a servomotor (model 300C-LR; Aurora Scientific). Two Pt-Ir electrode needles (Aurora Scientific) […] subcutaneously over the tibial nerve, just posterior/posterior-medial to the knee. The ankle joint was secured at a 90° angle. The peak isometric torque was achieved by varying the current delivered to the tibial nerve at a frequency of 200 Hz and a 0.1-ms square wave pulse. We performed three tetanic measurements on each muscle, with 1 min recovery between each measurement. Data were collected with the Aurora Scientific Dynamic Muscle Data Acquisition and Analysis Software.

[1] = system: aged mice with PTGDS knockdown; assay: SW treatment of aged mice with AAV9 shRNA knockdown of PTGDS; format: in vivo, mouse; details: aged muscles, SW one month
Experimental: Middle aged (18-20 mo.) and aged (>24 mo.) mice C57BL/6 were obtained the US National Institute on Aging (NIA) for aged muscle studies, and young (2-4 mo.) wild-type C57BL/6 mice from Jackson Laboratory. […] Time and distance to exhaustion was performed as previously described (4) for SW-treated mice and their controls.
Overexpression of Hpgd (15-PGDH) was achieved by integrating AAV9 under CMV promoter and with eGFP under IRES (AA9-CMV-m-HPGD-IRES-eGFP) (Vector Biolabs). The control virus was AAV9-tMCK-eGFP-WPRE.
The peak isometric torque (N·mm) of the ankle plantarflexors was assessed as previously described (21, 22). Briefly, the foot of anesthetized mice was placed on a footplate attached to a servomotor (model 300C-LR; Aurora Scientific). Two Pt-Ir electrode needles (Aurora Scientific) were inserted percutaneously and subcutaneously over the tibial nerve, just posterior/posterior-medial to the knee. The ankle joint was secured at a 90° angle. The peak isometric torque was achieved by varying the current delivered to the tibial nerve at a frequency of 200 Hz and a 0.1—ms square wave pulse. We performed three tetanic measurements on each muscle, with 1 min recovery between each measurement. Data were collected with the Aurora Scientific Dynamic Muscle Data Acquisition and Analysis Software.

[2] = system: EP4 receptor on aged myofibers; assay: SW treatment of aged EP4f/f mice with MCK-Cre ablation of EP4 in myofibers; format: in vivo, mouse; details: loss of EP4 expression in myofibers, SW one month
Source text: We performed all experiments and protocols in compliance with the institutional guidelines of Stanford University and Administrative Panel on Laboratory Animal Care (APLAC). Middle aged (18-20 mo.) and aged (>24 mo.) mice C57BL/6 were obtained the US National Institute on Aging (NIA) for aged muscle studies, and young (2-4 mo.) wild-type C57BL/6 mice from Jackson Laboratory. INK-ATTAC mice were generated as previously described (1). INK-ATTAC healthspan assessments. INK-ATTAC mice were crossed onto the C57BL6/J genetic background and maintained in specific-pathogen free housing on a 12-hour dark/light cycle for study duration. At 12 months of age, male mice were either utilized for baseline healthspan assessments and terminal muscle harvest or randomized to receive twice-weekly vehicle or AP20187 (2 mg/kg intraperitoneal injection; B/B homodimerizer, Clontech) until assessment and sacrifice at 28 months of age (2). […] Time and distance to exhaustion was performed as previously described (4) for SW-treated mice and their controls. […]
The peak isometric torque (N·mm) of the ankle plantarflexors was assessed as previously described (21, 22). […]

## CCCC[S+]([O-])c1sc2nc(-c3cccs3)cc(-c3ccccc3)c2c1N (stereo not drawn) [SW033291, 2-(butylsulfinyl)-4-phenyl-6-(thiophen-2-yl)thieno[2,3-b]pyridin-3-amine]
mdx4cv/mTRKO(G2) mice
  increase in muscle strength compared to vehicle treated controls: 22%
[1]
  endurance: increase
  muscle force: increase
  muscle mass: increase
[2]
  beneficial effect on muscle mass: abrogated
  beneficial effect on muscle strength: abrogated
